Source: ChEMBL document CHEMBL3407416, “Discovery of (R)-8-(1-(3,5-difluorophenylamino)ethyl)-N,N-dimethyl-2-morpholino-4-oxo-4H-chromene-6-carboxamide (AZD8186): a potent and selective inhibitor of PI3Kβ and PI3Kδ for the treatment of PTEN-deficient cancers” (J Med Chem, 2015)
pIC50: −log10 of the molar value.

Legend:
[1] = molecular target: T1, Phosphatidylinositol 4,5-bisphosphate 3-kinase catalytic subunit alpha isoform (Homo sapiens, UniProt P42336); test: Inhibition of human recombinant PI3Kalpha using PIP2 by Kinase-Glo Plus assay
Target sequence in this assay (P42336 whole entry, canonical isoform): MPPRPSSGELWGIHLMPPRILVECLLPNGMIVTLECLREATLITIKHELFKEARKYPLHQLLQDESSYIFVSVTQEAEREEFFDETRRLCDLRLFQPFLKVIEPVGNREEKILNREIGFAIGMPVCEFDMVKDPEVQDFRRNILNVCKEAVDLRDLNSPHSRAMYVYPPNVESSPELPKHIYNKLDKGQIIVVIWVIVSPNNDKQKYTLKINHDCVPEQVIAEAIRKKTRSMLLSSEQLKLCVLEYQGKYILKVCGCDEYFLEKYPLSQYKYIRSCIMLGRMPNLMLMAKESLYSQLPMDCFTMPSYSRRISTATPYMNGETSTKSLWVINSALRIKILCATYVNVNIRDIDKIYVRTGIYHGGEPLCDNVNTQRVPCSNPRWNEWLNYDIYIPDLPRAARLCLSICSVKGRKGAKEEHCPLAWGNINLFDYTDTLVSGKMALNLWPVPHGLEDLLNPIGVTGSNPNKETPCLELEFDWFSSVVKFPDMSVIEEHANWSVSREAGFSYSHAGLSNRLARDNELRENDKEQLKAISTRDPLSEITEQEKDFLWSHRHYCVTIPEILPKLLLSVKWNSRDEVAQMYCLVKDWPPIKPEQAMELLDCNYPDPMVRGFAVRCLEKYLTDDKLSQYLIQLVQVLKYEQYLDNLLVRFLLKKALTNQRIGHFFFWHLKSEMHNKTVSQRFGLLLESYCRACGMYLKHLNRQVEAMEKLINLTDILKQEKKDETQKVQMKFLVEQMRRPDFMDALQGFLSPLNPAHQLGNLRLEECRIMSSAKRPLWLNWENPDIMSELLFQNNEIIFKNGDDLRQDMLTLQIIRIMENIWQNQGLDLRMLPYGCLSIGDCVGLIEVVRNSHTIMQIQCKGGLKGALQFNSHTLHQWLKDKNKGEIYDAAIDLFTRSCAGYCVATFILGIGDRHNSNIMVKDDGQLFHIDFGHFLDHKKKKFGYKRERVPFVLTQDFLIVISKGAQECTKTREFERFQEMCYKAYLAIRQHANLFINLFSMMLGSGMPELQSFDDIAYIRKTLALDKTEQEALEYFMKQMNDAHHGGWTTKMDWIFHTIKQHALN

[2] = molecular target: Phosphatidylinositol 4,5-bisphosphate 3-kinase catalytic subunit gamma isoform (Homo sapiens, UniProt P48736); test: Inhibition of human recombinant PI3Kgamma using PIP2 by Kinase-Glo Plus assay
[3] = molecular target: T2, Phosphatidylinositol 4,5-bisphosphate 3-kinase catalytic subunit delta isoform (Homo sapiens, UniProt O00329); test: Inhibition of human recombinant PI3Kdelta using PIP2 by Kinase-Glo Plus assay
T2 sequence (O00329 whole entry): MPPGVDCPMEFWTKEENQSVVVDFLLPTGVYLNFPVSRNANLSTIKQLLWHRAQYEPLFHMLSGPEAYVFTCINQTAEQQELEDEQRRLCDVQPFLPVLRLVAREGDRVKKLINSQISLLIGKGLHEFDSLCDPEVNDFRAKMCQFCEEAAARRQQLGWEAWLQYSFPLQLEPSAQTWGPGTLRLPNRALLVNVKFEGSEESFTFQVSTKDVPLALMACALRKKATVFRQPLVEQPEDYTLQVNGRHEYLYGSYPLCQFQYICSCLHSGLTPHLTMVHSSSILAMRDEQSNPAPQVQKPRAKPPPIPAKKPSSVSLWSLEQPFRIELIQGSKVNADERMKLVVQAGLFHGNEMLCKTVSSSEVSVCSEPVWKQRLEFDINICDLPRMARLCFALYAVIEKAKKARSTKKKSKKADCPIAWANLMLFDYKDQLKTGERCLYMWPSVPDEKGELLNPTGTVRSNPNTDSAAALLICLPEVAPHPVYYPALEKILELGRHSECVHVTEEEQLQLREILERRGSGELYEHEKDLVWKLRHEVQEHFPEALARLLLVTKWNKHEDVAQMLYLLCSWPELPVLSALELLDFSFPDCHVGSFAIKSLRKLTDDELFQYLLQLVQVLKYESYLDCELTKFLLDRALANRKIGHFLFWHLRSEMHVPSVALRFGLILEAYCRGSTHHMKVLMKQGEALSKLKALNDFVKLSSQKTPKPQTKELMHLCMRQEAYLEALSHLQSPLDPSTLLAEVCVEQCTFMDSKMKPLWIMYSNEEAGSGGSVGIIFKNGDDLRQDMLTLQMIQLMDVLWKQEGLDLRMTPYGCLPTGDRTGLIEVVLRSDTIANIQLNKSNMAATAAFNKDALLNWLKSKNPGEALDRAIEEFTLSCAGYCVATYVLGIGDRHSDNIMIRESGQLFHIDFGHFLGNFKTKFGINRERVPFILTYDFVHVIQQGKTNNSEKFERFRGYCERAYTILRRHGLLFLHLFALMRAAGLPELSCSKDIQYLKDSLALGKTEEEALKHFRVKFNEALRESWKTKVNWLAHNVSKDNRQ

[4] = molecular target: T1, Phosphatidylinositol 4,5-bisphosphate 3-kinase catalytic subunit alpha isoform; test: Inhibition of PI3Kalpha mutant human BT474 cells assessed as inhibition of Akt phosphorylation at […] after 2 hrs; type: cell-based; details: bt-474
Target sequence in this assay (P42336 whole entry, looked up, canonical isoform): as the sequence (P42336 whole entry, canonical isoform) above

[5] = Lipophilicity, log D of the compound at pH 7.4 by shake-flask method; type: physicochemical; details: buffer
[6] = Intrinsic clearance in cryopreserved human hepatocytes measured per 10^6 cells; type: ADME, cell-based, Hepatocyte; details: read-out: CLH
[7] = Apparent permeability from apical to basolateral side of human Caco2 cells; type: ADME, cell-based; details: Caco-2, read-out: permeability
[8] = AUC in mouse at 30 umol/kg, po administered as propylene glycol; type: ADME, organism-based; details: plasma
[9] = Fraction unbound in mouse plasma; type: ADME, cell-free
[10] = Fraction unbound in dog plasma; type: ADME, cell-free, Canis lupus familiaris
[11] = Fraction unbound in human plasma; type: ADME, cell-free
[12] = molecular target: T3, Phosphatidylinositol 4,5-bisphosphate 3-kinase catalytic subunit beta isoform (Homo sapiens, UniProt P42338); test: Inhibition of human recombinant PI3Kbeta using PIP2 by Kinase-Glo Plus assay
[13] = molecular target: T3, Phosphatidylinositol 4,5-bisphosphate 3-kinase catalytic subunit beta isoform; test: Inhibition of PI3Kbeta in PTEN-null human MDA-MB-468 cells assessed as inhibition of Akt phosphorylation after 2 hrs; type: cell-based
[14] = Clearance in mouse at 5 umol/kg, iv administered as bolus dose in 20 to 30% DMA in PBS; type: ADME, organism-based; details: in vivo
[15] = Volume of distribution in mouse at 5 umol/kg, iv administered as bolus dose in 20 to 30% DMA in PBS; type: ADME, organism-based; details: in vivo
[16] = Oral bioavailability in mouse at 30 umol/kg administered as propylene glycol; type: ADME, organism-based; details: in vivo
[17] = tested on: Mus musculus; test: Intrinsic clearance in mouse at 5 umol/kg, iv administered as bolus dose in 20 to 30% DMA in PBS; type: ADME, organism-based; details: in vivo
[18] = Clearance in dog at 5 umol/kg, iv administered as bolus dose in 20 to 30% DMA in PBS; type: ADME, organism-based, Canis lupus familiaris; details: in vivo
[19] = Volume of distribution in dog at 5 umol/kg, iv administered as bolus dose in 20 to 30% DMA in PBS; type: ADME, organism-based, Canis lupus familiaris; details: in vivo
[20] = Oral bioavailability in dog at 30 umol/kg administered as propylene glycol; type: ADME, organism-based, Canis lupus familiaris; details: in vivo
[21] = tested on: Canis familiaris; test: Intrinsic clearance in dog at 5 umol/kg, iv administered as bolus dose in 20 to 30% DMA in PBS; type: ADME, organism-based, Canis lupus familiaris; details: in vivo
[22] = tested on: BT-474; test: Selectivity ratio of IC50 for human PI3Kbeta in human MDA-MB-468 cells to IC50 for PI3Kalpha in human BT474 cells; type: cell-based

T3 sequence (P42338 whole entry, canonical isoform): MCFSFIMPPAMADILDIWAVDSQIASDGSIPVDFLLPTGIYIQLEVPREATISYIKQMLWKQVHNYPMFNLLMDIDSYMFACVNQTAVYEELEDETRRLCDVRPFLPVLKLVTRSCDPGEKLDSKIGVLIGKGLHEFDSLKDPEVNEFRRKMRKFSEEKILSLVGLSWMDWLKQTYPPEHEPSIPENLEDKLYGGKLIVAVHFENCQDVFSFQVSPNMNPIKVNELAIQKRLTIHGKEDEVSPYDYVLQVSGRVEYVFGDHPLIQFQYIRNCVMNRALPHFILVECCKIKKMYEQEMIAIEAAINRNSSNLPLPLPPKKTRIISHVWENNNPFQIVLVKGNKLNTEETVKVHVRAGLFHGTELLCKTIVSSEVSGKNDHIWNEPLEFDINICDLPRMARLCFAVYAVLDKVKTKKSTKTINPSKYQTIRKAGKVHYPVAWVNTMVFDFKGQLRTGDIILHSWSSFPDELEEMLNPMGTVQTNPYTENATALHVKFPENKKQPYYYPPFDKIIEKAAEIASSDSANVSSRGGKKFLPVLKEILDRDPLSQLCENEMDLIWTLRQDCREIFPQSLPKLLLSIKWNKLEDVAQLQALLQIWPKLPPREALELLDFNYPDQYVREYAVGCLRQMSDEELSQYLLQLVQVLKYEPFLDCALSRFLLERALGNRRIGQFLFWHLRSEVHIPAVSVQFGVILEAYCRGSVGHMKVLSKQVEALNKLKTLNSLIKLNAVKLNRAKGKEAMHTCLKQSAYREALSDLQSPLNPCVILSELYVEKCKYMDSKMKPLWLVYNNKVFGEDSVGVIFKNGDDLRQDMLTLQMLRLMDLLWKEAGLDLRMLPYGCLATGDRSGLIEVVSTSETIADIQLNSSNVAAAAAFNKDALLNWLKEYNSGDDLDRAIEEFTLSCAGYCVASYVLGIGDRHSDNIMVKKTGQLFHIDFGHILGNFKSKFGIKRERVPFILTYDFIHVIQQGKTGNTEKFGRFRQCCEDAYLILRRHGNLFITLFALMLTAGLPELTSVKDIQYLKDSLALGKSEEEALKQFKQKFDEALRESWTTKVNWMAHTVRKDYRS
Phosphatidylinositol 4,5-bisphosphate 3-kinase catalytic subunit gamma isoform, sequence (P48736 whole entry, canonical isoform): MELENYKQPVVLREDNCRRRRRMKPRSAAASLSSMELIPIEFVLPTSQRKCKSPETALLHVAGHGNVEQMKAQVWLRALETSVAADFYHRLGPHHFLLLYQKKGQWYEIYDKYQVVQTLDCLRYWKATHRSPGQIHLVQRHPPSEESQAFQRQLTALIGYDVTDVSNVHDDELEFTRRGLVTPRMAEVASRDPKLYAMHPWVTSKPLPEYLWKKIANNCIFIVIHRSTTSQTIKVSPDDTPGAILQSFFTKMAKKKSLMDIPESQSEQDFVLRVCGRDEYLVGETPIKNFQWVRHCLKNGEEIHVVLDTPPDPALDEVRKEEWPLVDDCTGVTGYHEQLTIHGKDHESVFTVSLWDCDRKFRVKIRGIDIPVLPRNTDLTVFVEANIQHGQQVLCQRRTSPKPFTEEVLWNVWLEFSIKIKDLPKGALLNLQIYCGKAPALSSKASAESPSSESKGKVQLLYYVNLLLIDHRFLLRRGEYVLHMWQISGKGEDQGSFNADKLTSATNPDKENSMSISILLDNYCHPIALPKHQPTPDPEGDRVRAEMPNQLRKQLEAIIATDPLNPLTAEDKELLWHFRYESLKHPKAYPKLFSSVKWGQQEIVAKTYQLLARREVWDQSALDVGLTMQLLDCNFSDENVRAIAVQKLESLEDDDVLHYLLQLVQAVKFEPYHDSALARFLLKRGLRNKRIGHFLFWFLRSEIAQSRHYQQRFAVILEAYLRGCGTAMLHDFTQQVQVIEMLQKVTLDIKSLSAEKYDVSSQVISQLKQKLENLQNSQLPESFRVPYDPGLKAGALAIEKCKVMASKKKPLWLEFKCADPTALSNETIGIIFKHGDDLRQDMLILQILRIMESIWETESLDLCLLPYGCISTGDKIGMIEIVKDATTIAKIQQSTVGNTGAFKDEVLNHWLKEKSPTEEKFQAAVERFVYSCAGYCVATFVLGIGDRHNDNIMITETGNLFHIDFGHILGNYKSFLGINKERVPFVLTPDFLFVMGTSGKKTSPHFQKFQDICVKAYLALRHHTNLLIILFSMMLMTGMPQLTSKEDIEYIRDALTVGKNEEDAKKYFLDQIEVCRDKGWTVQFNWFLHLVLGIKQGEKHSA

SMILES | pIC50 [1] | pIC50 [2] | pIC50 [3] | pIC50 [4] | logD [5] | hepatocyte CLint [6] | Papp A→B [7] | AUC [8] | fraction unbound [9] | fraction unbound [10] | fraction unbound [11] | pIC50 [12] | pIC50 [13] | clearance [14] | Vd [15] | bioavailability [16] | clearance [17] | also measured
C[C@H](c1cc(C(=O)N(C)CCO)cc2c(=O)cc(N3CCOCC3)oc12)N(C)c1cc(F)cc(F)c1 | 6.74 | 5.92 | 7.28 | 5.33 | 2.1 | < 3 µL/min/1e6 cells | 7 ×10⁻⁶ cm/s | 0.7 µM·h | 0.15 | 0.23 | 0.17 |  |  |  |  |  |  | 
C[C@@H](Nc1cc(F)cc(F)c1F)c1cc(C(=O)N(C)C)cc2c(=O)cc(N3CCOCC3)oc12 | 6.85 | 5.82 | 7.39 | 6.05 | 2.3 | < 5 µL/min/1e6 cells | 16 ×10⁻⁶ cm/s | 1.5 µM·h | 0.28 | 0.43 | 0.27 | 8.10 | 8.22 | 137 mL/min/kg | 1.7 L/kg | 42% | 99 mL/min/kg | clearance [18]: 28 mL/min/kg; Vd [19]: 2.2 L/kg; bioavailability [20]: 47%; clearance [21]: 16 mL/min/kg
CN(C)C(=O)c1cc(CNc2cc(F)cc(F)c2)c2oc(N3CCOCC3)cc(=O)c2c1 | 7.03 | 5.49 | 7.10 | 5.49 | 2.2 | < 3 µL/min/1e6 cells |  |  |  |  |  | 8.10 | 7.46 |  |  |  |  | Ratio IC50 [22]: 100
C[C@@H](Nc1cc(F)cc(Cl)c1)c1cc(C(=O)N(C)C)cc2c(=O)cc(N3CCOCC3)oc12 | 7.60 | 6.68 | 7.55 | 6.77 | 2.8 | 12 µL/min/1e6 cells | 11 ×10⁻⁶ cm/s | 0.8 µM·h | 0.04 | 0.14 | 0.06 |  |  | 134 mL/min/kg | 3.5 L/kg | 23% | 147 mL/min/kg | 
C[C@H](c1cc(C(=O)N2CCC(O)CC2)cc2c(=O)cc(N3CCOCC3)oc12)N(C)c1cc(F)cc(F)c1 | 6.43 | 5.80 | 7.09 | 5.32 | 2.4 | < 3 µL/min/1e6 cells | 4.6 ×10⁻⁶ cm/s | 0.8 µM·h | 0.18 | 0.23 | 0.17 | 8.15 | 7.92 |  |  |  |  | 
C[C@@H](Nc1ccc(F)c(F)c1)c1cc(C(=O)N(C)C)cc2c(=O)cc(N3CCOCC3)oc12 | 6.77 | 5.60 | 7.49 | 5.60 | 1.9 | < 3 µL/min/1e6 cells | 6.5 ×10⁻⁶ cm/s | 0.8 µM·h | 0.25 | 0.34 | 0.27 | 8.15 | 7.77 | 112 mL/min/kg | 1.7 L/kg | 19% | 57 mL/min/kg | 
C[C@@H](Nc1cccc(Cl)c1F)c1cc(C(=O)N(C)C)cc2c(=O)cc(N3CCOCC3)oc12 | 7.55 | 6.49 | 7.66 | 6.30 | 2.3 | < 3 µL/min/1e6 cells | 21 ×10⁻⁶ cm/s | 0.9 µM·h |  | 0.26 | 0.15 | 8.30 | 7.70 | 81 mL/min/kg | 1.7 L/kg | 19% | 64 mL/min/kg | 
C[C@H]1CN(c2cc(=O)c3cc(C(=O)N(C)C)cc([C@@H](C)Nc4cc(F)cc(F)c4)c3o2)CCO1 | 7.92 | 6.85 | 7.92 | 6.96 | 2.7 | < 3 µL/min/1e6 cells | 14 ×10⁻⁶ cm/s | 3.3 µM·h | 0.12 | 0.2 | 0.14 | 8.40 | 9.40 | 76 mL/min/kg | 2.2 L/kg | 50% | 53 mL/min/kg | clearance [18]: 69 mL/min/kg; Vd [19]: 2.5 L/kg; bioavailability [20]: 5%; clearance [21]: 15 mL/min/kg
